In patent publication US20240309014A1, “MACROCYCLIC COMPOUNDS AND USES THEREOF” (President and Fellows of Harvard College, priority 2017, published 2024):

Key:
[1] = tested on: human endometrial cancer cell line AN3CA xenograft; assay: AN3CA endometrial cancer xenograft as monotherapy (FIG. 18); type: in vivo, nude mice; details: 180 μg/kg i.v. Day 1 and Day 8
Procedure: A human endometrial cancer cell line AN3CA, which had been cultured in an E-MEM containing 10% FBS, and penicillin-streptomycin, was adjusted to a concentration of 1.4×10^8 cells/mL with Hanks' Balanced Salt Solution to prepare a cell suspension, and the suspension was mixed with Geltrex® (Thermo Fisher Scientific Inc., #A1413202) in a ratio of 1:1 to prepare a cell suspension in a concentration of 7×10^7 cells/mL. The cell suspension was inoculated in a volume of 100 μL into a subcutaneous part of a right flank of nude mice, 6 weeks of ages (CAnN.Cg-Foxnlnu/CrlCrlj, female, Charles River Laboratories Japan Inc.). Twelve days after cell inoculation (Day 1), the shortest diameter and the longest diameter of a tumor in each mouse were measured by using an electronic digital caliper (Digimatic™ caliper, Mitutoyo Corporation), so as to calculate the volume of the tumor in accordance with the following calculation formulae: […]
On the basis of the volumes of tumors obtained on Day 1, the mice were grouped such that averages of the tumor volumes were substantially equal among the groups. The experiment was conducted on groups each consisting of five mice. The test compound was dissolved in DMSO and a solution was stored in the freezer before use. Immediately before the administration, the stock solution was diluted with saline. […]

[2] = tested on: FaDu-Luc subcutaneous xenograft; assay: FaDu s.c. xenograft model in combination with radiation; type: in vivo, nude mice
Procedure: Luciferase-transduced FaDu-Luc cells were established by retrovirus-mediated gene transfer. […]. Then, helper-free recombinant retroviruses were produced by transfecting the above retroviral expression vector together with pGP and pE-Ampho plasmids (Takara Bio; Shiga, Japan), into 293T cells (ATCC; Manassas, USA). Next, FaDu cells were infected with the recombinant retroviruses, and were cultured for two weeks in the presence of puromycin (2 μg/mL). The infected cells were selected from a polyclonal proliferative population of the culture.
A luciferase-transduced human SCCHN cell line FaDu-Luc, which had been cultured in an RPMI-1640 medium containing 10% FBS, and penicillin and streptomycin, was adjusted to a concentration of 5×10^7 cells/mL with Hank's Balanced Salt Solution to prepare a cell suspension. […] Thirteen days after the cell inoculation, the tumor volume was analyzed using bioluminescence signal from FaDu-Luc cells. […] The bioluminescence signal was monitored using the IVIS […] series (PerkinElmer, Waltham, MA), consisting of a highly sensitive, cooled chargecoupled device camera. […] Data were analyzed using total photon flux emission (photons/second) in the ROIs. The total photon flux emission was calculated in accordance with the following calculation formulae: […]

[3] = tested on: OE21, OE33, TE-8, MES-SA, MES-SA/Dx5-RX1 cell lines; assay: In vitro antiproliferative activity, esophageal and uterine cancer cell panel (FIG. 11); type: cell-based, human; details: 72 hours, CellTiter-Glo; values only in FIG. 11
Procedure: The in vitro antiproliferative assays for Compound (1) were conducted using a small panel of cancer cell lines including human squamous cell carcinoma of the esophagus (OE21, TE-8), human […] of the esophagus (OE33), and human uterine sarcoma (MES-SA, MES-SA-Dx5-R^X1). All cell lines were cultured in RPMI-1640 medium containing 10% FBS, and penicillin-streptomycin (culture medium), in a 5% CO2 incubator (37° C.). To each well of a 96 well plate (Becton, Dickinson and Company, 353219), 75 μL of cell suspension adjusted to a concentration of 4×10^4 cells/mL with the culture medium was added, and the cells were incubated overnight in a 5% CO2 incubator (37° C.). On the next day, 25 μL of Compound (1) in three-fold dilution series suspended in the culture medium was added to each well, and the resultant was incubated for 72 hours in a 5% CO2 incubator (37° C.). Then, cell viability was determined by CellTiter-Glo® Luminescent Cell Viability Assay (Promega) with 2013 EnVision™ Multilabel Reader (Perkin-Elmer, Wellesley, MA). Value of the wells containing cells without adding the test compounds was defined as 100% and the value of the wells containing no cells was defined as 0%. […] The P-gp susceptibility was calculated as the ratio of the IC50 value in MES-SA-Dx5-R^X1 cells, which overexpress P-gp, to the IC50 value in MES-SA cells.

[4] = tested on: murine undifferentiated colon carcinoma cell line CT26; assay: CT26 subcutaneous syngeneic model in combination with anti-mPD-1 antibody; type: in vivo, BALB/c mice
Procedure: A murine undifferentiated colon carcinoma cell line CT26, which had been cultured in an RPMI-1640 medium containing 10% FBS, and penicillin and streptomycin, was adjusted to a concentration of 2×10^7 cells/mL with Hank's Balanced Salt Solution to prepare a cell suspension. On day 1, the cell suspension was inoculated in a volume of 100 μL into a subcutaneous part of a right flank of BALB/c mice, 6 weeks of ages (BALB/cAnNCrlCrlj, female, Charles River Laboratories Japan, Inc.). Two days after the cell inoculation, the mice were randomly divided into four groups and each group consists of 8 mice. The shortest diameter and the longest diameter of a tumor in each mouse were measured by using an electronic digital caliper (Digimatic™ caliper, Mitutoyo Corporation), so as to calculate the volume of the tumor in accordance with the following calculation formula: […]
The test compound was intravenously administered at 0.09 mg/kg on days 3 and 11. Anti-mPD-1 antibody (BE0146, Bio X Cell) was intravenously administered at 10 mg/kg on days 3, 7, 11, and 15.

For `C=C1C[C@@H]2CC[C@@]34C[C@H]5O[C@H]6[C@@H](O3)[C@H]3O[C@H](CC[C@@H]3O[C@H]6C5O4)CC(=O)O[C@@H]3[C@@H](C)[C@@H]4O[C@@H]5C[C@]6(C[C@@H]7O[C@]8(C[C@H](C)[C@@H]9O[C@H](CN)[C@H](O)C[C@@H]9O8)C[C@H](C)[C@@H]7O6)O[C@@H]5C[C@@H]4O[C@H]3C[C@H]3O[C@@H](CC[C@@H]1O2)C[C@@H](C)C3=C` (stereo in doubt) [Compound (1)], the antitumor activity [1] was “tumor regression”, the “Tumor Regression (%)” value ([2]; 0.09 mg/kg i.v. day 1 and 8 + radiation 18 Gy day 4 and 11) was 97% and the “Tumor Regression (%)” value ([2]; 0.09 mg/kg i.v. day 1 and 8, without radiation) was 0%. For the same molecule, the antiproliferative activity [3] was “potent antiproliferative agent”, the “Inhibition of tumor growth on day 15 (%)” value ([4]; 0.09 mg/kg i.v. days 3 and 11 + anti-mPD-1 antibody 10 mg/kg) was 62% and the “Inhibition of tumor growth on day 15 (%)” value ([4]; single agent: anti-mPD-1 antibody 10 mg/kg or Compound (1) 0.09 mg/kg) was 30%.
